This is an account of results in patent US20230119013A1, “N-CYANOPYRROLIDINES WITH ACTIVITY AS USP30 INHIBITORS” (MISSION THERAPEUTICS LIMITED, priority 2020, published 2023).

One series has as its system UUO injured kidneys. Description: UUO model of tubulointerstitial fibrosis. Format: in vivo, C57BL/6 mice. Particulars: 10 days. The source says: (a) Bleomycin-induced lung fibrosis model, which is a leading preclinical in vivo model of Idiopathic Pulmonary Fibrosis. [Kobayashi et al, 2016, J Immunol, 197(2):504-516] (b) Diet-induced model of NAFLD and glucose homeostasis. [Nishida et al, 2013, Lab Invest; February; 93(2):230-41] (c) MPTP Model of Parkinson's Disease, which is a commonly used paradigm for looking at neurodegeneration in the dopaminergic system of the brain which is triggered by chemically-induced mitochondrial dysfunction. [Karuppagouner et al, 2014, Sci Rep. 2014 May 2; 4:4874] (d) Ndufs4KO Leigh syndrome model. [Kruse et al, 2008, Cell Metab. April; 7(4):312-20] (e) Aged rodent model: effects on hippocampal, cognitive and motor function. [Kobilo et al, 2014, Learn Mem. January 17; 21(2):119-26; Creed et al, 2019, Neuroscience. June 15; 409:169-179; Van Skike et al, 2020, Aging Cell. 19; e13057]. Example 1 was assessed in this model. (f) UUO causes renal injury characterised by tubular cell injury, interstitial inflammation and fibrosis. It serves as a model of irreversible post-renal acute kidney injury (AKI). […]
Example 1 was assessed in the UUO model to determine the ability of the compound to attenuate progressive tubulointerstitial fibrosis and chronic kidney disease (CKD). […]

A further series deals with TK6 cells. The experiment in a line: In vitro micronucleus assay in TK6 cells. It counts as cell-based. To be noted: 27 hours recovery. Here is the method:
The micronucleus assay may be used to determine if a compound is genotoxic by evaluating the presence of micronuclei. Micronuclei may contain chromosome fragments produced from DNA breakage (clastogens) or whole chromosomes produced by disruption of the mitotic apparatus (aneugens).
Example 1 was assessed in the bacterial reverse mutation assay (Ames) and in vitro micronucleus assay. All in vitro tests were conducted with and without exogenous metabolic activation using concentrations up to those limited by cytotoxicity or insolubility.
Induction of chromosome damage was assessed using the in vitro micronucleus assay in TK6 cells. Example 1 was negative for induction of micronuclei when incubated for 3 hours in the presence of exogenous metabolic activation followed by 27 hours recovery, and also when incubated for 27 hours in the absence of exogenous metabolic activation followed by 27 hours recovery.

As for `COC[C@@H]1C[C@@H](NC(=O)c2ncc(-c3cccc(OC(F)(F)F)c3)o2)CN1C#N` [Example 1, N-((3R,5S)-1-Cyano-5-(methoxymethyl)pyrrolidin-3-yl)-5-(3-(trifluoromethoxy)phenyl)oxazole-2-carboxamide], in the series with UUO injured kidneys (15, 5 and 1.5 mg/kg oral BID), the “α-SMA levels in UUO injured kidneys v vehicle treated controls” value is “statistical reduction in α-SMA levels”. Further, the “collagen deposition (picrosirius red staining) in ligated kidneys” value in the series on UUO injured kidneys (15, 5 and 1.5 mg/kg p.o. BID) is reported as “statistically reduced collagen deposition”. In addition, the induction of micronuclei result in the series with TK6 cells (3 hours in the presence of exogenous metabolic activation) and in the series with TK6 cells (27 hours in the absence of exogenous metabolic activation) was “negative” in each case.
